In patent EP4603105A1, “PHARMACEUTICAL COMPOSITION CONTAINING CYCLIC COMPOUND HAVING SELECTIVE KRAS INHIBITORY EFFECT AGAINST HRAS AND NRAS” (CHUGAI SEIYAKU KABUSHIKI KAISHA, priority 2022, dated 2024):
*1 amine or outer side, *2 acyl side, *3 side chain or, on linkers, in order; H or OH if unused. Where a SMILES comes first, the peptide text is derived from it. Bridges are numbered along the chain shown (N, C = ends). [ ]: non-standard residue; d: D form. The star is where a group is joined. hPhe(3-Cl-4-CF3) = N[C@@H](CCc1ccc(C(F)(F)F)c(Cl)c1)C(=O)O; NPrPhe(4-CF3) = CCCN[C@@H](Cc1ccc(C(F)(F)F)cc1)C(=O)O; X49 = Cc1ccc(C[C@@H](C(=O)[*:2])N(CC2CC2)[*:1])cc1; NMeGly(cPent) = CN[C@H](C(=O)O)C1CCCC1; Hyp = O=C(O)[C@@H]1C[C@@H](O)CN1; NMeD = CN[C@@H](CC(=O)O)C(=O)O; NMeL = CN[C@@H](CC(C)C)C(=O)O; hPip = O=C(O)[C@@H]1CCCCCN1; Morpholide = C1CN(*)CCO1; NMeA = CN[C@@H](C)C(=O)O; Ac5c = NC1(C(=O)O)CCCC1; Aze = O=C(O)[C@@H]1CCN1; Ac4c = NC1(C(=O)O)CCC1; NEtG = CCNCC(=O)O; Sar = CNCC(=O)O

Key:
[1] = target: GDP-bound NRAS wild-type protein (Homo sapiens, UniProt P01111); experiment: Binding to NRAS by surface plasmon resonance (SPR), KD and KD ratio to KRAS
Summary of the method: (§1)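 Captured GDP-RAS (~100–300 RU) was exposed to increasing compound concentrations, 75 s per step, in running buffer with 10 µM GDP, 10 mM MgCl2 and 4% DMSO at pH 7.4.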

HRAS wild-type protein = HRAS wild-type protein (Homo sapiens, UniProt P01112); experiment: Binding to HRAS by surface plasmon resonance (SPR), KD and KD ratio to KRAS
Summary of the method: as §1

[2] = tested on: human lung cancer strain NCI-H441; assay type: cell-based
Summary of the method: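 Step one: dispense the test compound in serial DMSO dilutions. Step three: add the reagent and measure […].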

[3] = ratio of the KD value with respect to GDP-bound NRAS wild-type protein to the KD value with respect to KRAS
[4] = ratio of the KD value with respect to HRAS wild-type protein to the KD value with respect to KRAS
[5] = ratio of KD for GDP-bound NRAS wild-type protein to KD for KRAS
[6] = ratio of KD for HRAS wild-type protein to KD for KRAS

GDP-bound NRAS wild-type protein, sequence (P01111 whole entry): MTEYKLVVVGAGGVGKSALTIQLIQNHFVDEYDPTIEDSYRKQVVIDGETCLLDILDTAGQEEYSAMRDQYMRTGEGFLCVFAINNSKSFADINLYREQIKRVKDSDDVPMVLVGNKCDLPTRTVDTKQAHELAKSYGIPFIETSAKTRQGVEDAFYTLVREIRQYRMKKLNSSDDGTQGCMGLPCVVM
HRAS wild-type protein, sequence (P01112 whole entry): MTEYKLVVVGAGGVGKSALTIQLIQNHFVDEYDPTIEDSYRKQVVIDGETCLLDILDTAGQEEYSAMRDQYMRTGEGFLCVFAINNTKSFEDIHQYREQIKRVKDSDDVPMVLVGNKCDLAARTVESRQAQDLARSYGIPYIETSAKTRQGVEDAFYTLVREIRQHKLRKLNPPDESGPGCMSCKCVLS

| IC50 [2] | SMILES | NRAS /KRAS [1, 3] | HRAS /KRAS (HRAS wild-type protein; [4]) | NRAS /KRAS ([1]; ratio of KD value for GDP-bound NRAS wild-type protein to KD value for KRAS (SPR)) | HRAS /KRAS (HRAS wild-type protein; ratio of KD value for HRAS wild-type protein to KD value for KRAS (SPR)) | NRAS /KRAS [1, 5] | HRAS /KRAS (HRAS wild-type protein; [6]) |
| --- | --- | --- | --- | --- | --- | --- | --- |
| 11.5 nM | CC[C@H](C)[C@@H]1NC(=O)[C@H](CC(C)C)N(C)C(=O)C[C@@H](C(=O)N2CCOCC2)N(C)C(=O)[C@H](C2CCCC2)N(C)C(=O)C(C)(C)NC(=O)[C@@H]2CCCN2C(=O)[C@H](CCc2cc(F)c(C(F)(F)F)c(F)c2)NC(=O)CN(C)C(=O)[C@H](Cc2ccc(C(F)(F)F)cc2)N2CCCC[C@@H](C2=O)N(C)C(=O)CN(C)C1=O [PP0565] | C (A compound having a KD ratio of 0.1 or more and less than 3 is denoted as C) | B (a compound having 3 or more and less than 10 is denoted as B) | – | – | – | – |
| 150 nM | CCO[C@@H]1C[C@H]2C(=O)NC3(CC(C)(C)C3)C(=O)N(C)[C@@H](C(CC)CC)C(=O)N(C)[C@H](CC)CC(=O)N(C)[C@@H](CC3CC3)C(=O)N[C@@H]([C@@H](C)CC)C(=O)N(C)CC(=O)N(C)[C@H]3C/C=C\CCN(C3=O)[C@@H](Cc3ccc(C(F)(F)F)cc3)C(=O)N(C)CC(=O)N[C@@H](CCc3cc(F)c(C(F)(F)F)c(F)c3)C(=O)N2C1 [PP1628] | – | – | A (a compound having 10 or more and less than 20 is denoted as A) | A (a compound having 10 or more and less than 20 is denoted as A) | – | – |
| 14.8 nM | CC[C@H](C)[C@@H]1NC(=O)[C@H](C)N(C)C(=O)C[C@@H](C(=O)N(C)C)N(C)C(=O)[C@H](C2CCCC2)N(C)C(=O)C2(CCC2)NC(=O)[C@@H]2CC(F)(F)CN2C(=O)[C@H](CCc2cc(F)c(C(F)(F)F)c(F)c2)NC(=O)CN(C)C(=O)[C@H](Cc2ccc(C(F)(F)F)cc2)N2CCCCC[C@@H](C2=O)N(C)C(=O)CN(C)C1=O [PP0473] | C (A compound having a KD ratio of 0.1 or more and less than 3 is denoted as C) | C (A compound having a KD ratio of 0.1 or more and less than 3 is denoted as C) | – | – | – | – |
| 10.2 nM | CCCN1C(=O)[C@@H]2CCN2C(=O)CN(CC)C(=O)[C@H]([C@@H](C)CC)NC(=O)[C@H](CC(C)C)N(C)C(=O)C[C@@H](C(=O)N2CCOCC2)N(C)C(=O)[C@H](C2CCCC2)N(C)C(=O)C2(CCCC2)NC(=O)[C@@H]2CCCN2C(=O)[C@H](CCc2ccc(C(F)(F)F)c(Cl)c2)NC(=O)CN(C)C(=O)[C@@H]1Cc1ccc(C(F)(F)F)cc1 [PP0259] ([NMeL]I[NEtG][Aze][NPrPhe(4-CF3)][Sar][hPhe(3-Cl-4-CF3)]P[Ac5c][NMeGly(cPent)][NMeD]-Morpholide; lactam N-11) | – | – | – | – | C (A compound having a KD ratio of 0.1 or more and less than 3 is denoted as C) | B (a compound having 3 or more and less than 10 is denoted as B) |
| 118 nM | CCC[C@H]1C(=O)N[C@@H]([C@@H](C)CC)C(=O)N(C)CC(=O)N(C)[C@H]2C/C=C\CCN(C2=O)[C@@H](Cc2ccc(C(F)(F)F)cc2)C(=O)N(C)CC(=O)N[C@@H](CCc2ccc(Cl)c(Cl)c2)C(=O)N2CCOC[C@H]2C(=O)NC2(CC(C)(C)C2)C(=O)N(C)[C@@H](C(CC)CC)C(=O)N(C)[C@H](C(=O)N(C)C)CC(=O)N1C [PP2920] | – | – | – | – | AA (a compound having 20 or more is denoted as AA) | A (a compound having 10 or more and less than 20 is denoted as A) |
| 2.9 nM | CCO[C@@H]1C[C@H]2C(=O)NC3(CCC3)C(=O)N(C)[C@@H](C3CCCC3)C(=O)N(C)[C@H](C(=O)N(C)C)CC(=O)N(C)[C@@H](CC(C)(C)C)C(=O)N[C@@H]([C@@H](C)CC)C(=O)N(C)CC(=O)N(C)[C@H]3CCCCN(C3=O)[C@@H](Cc3ccc(C(F)(F)F)cc3)C(=O)N(C)CC(=O)N[C@@H](CCc3cc(F)c(C(F)(F)F)c(F)c3)C(=O)N2C1 [PP0699] | C (A compound having a KD ratio of 0.1 or more and less than 3 is denoted as C) | C (A compound having a KD ratio of 0.1 or more and less than 3 is denoted as C) | – | – | – | – |
| 25.7 nM | CCO[C@@H]1C[C@H]2C(=O)NC3(CC(C)(C)C3)C(=O)N(C)[C@@H](C3CCCCC3)C(=O)N(C)[C@H](C(=O)N(C)C)CC(=O)N(C)[C@@H](CC)C(=O)N[C@@H]([C@@H](C)CC)C(=O)N(C)CC(=O)N(C)[C@H]3C/C=C\CCN(C3=O)[C@@H](Cc3ccc(C(F)(F)F)cc3)C(=O)N(C)CC(=O)N[C@@H](CCc3cc(F)c(C(F)(F)F)c(F)c3)C(=O)N2C1 [PP1942] | AA (a compound having 20 or more is denoted as AA) | A (a compound having 10 or more and less than 20 is denoted as A) | – | – | – | – |
| 38.4 nM | CC[C@H](C)[C@@H]1NC(=O)[C@@H]2CCC/C=C/c3ccc(cc3)C[C@@H](C(=O)N(C)CC(=O)N[C@@H](CCc3ccc(Cl)c(Cl)c3)C(=O)N3C[C@H](OC4CCCC4)C[C@H]3C(=O)NC3(CC(C)(C)C3)C(=O)N(C)[C@@H](C3CCCC3)C(=O)N(C)[C@H](C(=O)N3CCCC3)CC(=O)N2C)N2CC/C=C\C[C@@H](C2=O)N(C)C(=O)CN(C)C1=O [PP3054] | – | – | – | – | A (a compound having 10 or more and less than 20 is denoted as A) | A (a compound having 10 or more and less than 20 is denoted as A) |
| 6.2 nM | CC[C@H](C)[C@@H]1NC(=O)[C@H](CC(C)C)N(C)C(=O)C[C@@H](C(=O)N2CCOCC2)N(C)C(=O)[C@H](C2CCCC2)N(C)C(=O)C2(CCCC2)NC(=O)[C@@H]2CCCN2C(=O)[C@H](CCc2ccc(C(F)(F)F)c(Cl)c2)NC(=O)CN(C)C(=O)[C@H](Cc2ccc(C)cc2)N(CC2CC2)C(=O)[C@@H]2CCN2C(=O)[C@H](C)N(C)C1=O [PP0057] ([NMeL]I[NMeA][Aze][X49][Sar][hPhe(3-Cl-4-CF3)]P[Ac5c][NMeGly(cPent)][NMeD]-Morpholide; lactam N-11) | – | – | – | – | C (A compound having a KD ratio of 0.1 or more and less than 3 is denoted as C) | B (a compound having 3 or more and less than 10 is denoted as B) |
| 41.3 nM | CCCN1C(=O)CN(C)C(=O)CN(C)C(=O)[C@H]([C@@H](C)CC)NC(=O)[C@@H]2CCCCCN2C(=O)C[C@@H](C(=O)N2CCOCC2)N(C)C(=O)[C@H](C2CCCC2)N(C)C(=O)C2(CCCC2)NC(=O)[C@@H]2CCCN2C(=O)[C@H](CCc2ccc(C(F)(F)F)c(Cl)c2)NC(=O)CN(C)C(=O)[C@@H]1Cc1ccc(C(F)(F)F)cc1 [PP0247] ([hPip]I[Sar][Sar][NPrPhe(4-CF3)][Sar][hPhe(3-Cl-4-CF3)]P[Ac5c][NMeGly(cPent)][NMeD]-Morpholide; lactam N-11) | – | – | – | – | B (a compound having 3 or more and less than 10 is denoted as B) | C (A compound having a KD ratio of 0.1 or more and less than 3 is denoted as C) |
| 2.8 nM | CCCN1C(=O)[C@@H]2CCN2C(=O)CN(C)C(=O)[C@H]([C@@H](C)CC)NC(=O)[C@H](CC(C)C)N(C)C(=O)C[C@@H](C(=O)N2CCOCC2)N(C)C(=O)[C@H](C2CCCC2)N(C)C(=O)C2(CCC2)NC(=O)[C@@H]2C[C@@H](OCC)CN2C(=O)[C@H](CCc2ccc(C(F)(F)F)c(Cl)c2)NC(=O)CN(C)C(=O)[C@@H]1Cc1ccc(C(F)(F)F)cc1 [PP0411] ([NMeL]I[Sar][Aze][NPrPhe(4-CF3)][Sar][hPhe(3-Cl-4-CF3)][Hyp](Et)[Ac4c][NMeGly(cPent)][NMeD]-Morpholide; lactam N-11) | C (A compound having a KD ratio of 0.1 or more and less than 3 is denoted as C) | C (A compound having a KD ratio of 0.1 or more and less than 3 is denoted as C) | – | – | – | – |
| 7.1 nM | CCO[C@@H]1C[C@H]2C(=O)NC3(CCC3)C(=O)N(C)[C@@H](C3CCCC3)C(=O)N(C)[C@H](C(=O)N(C)C)CC(=O)N(C)[C@@H](CC)C(=O)N[C@@H]([C@@H](C)CC)C(=O)N(C)CC(=O)N(C)[C@H]3CCCCN(C3=O)[C@@H](Cc3ccc(C(F)(F)F)cc3)C(=O)N(C)CC(=O)N[C@@H](CCc3ccc(C(F)(F)F)c(C)c3)C(=O)N2C1 [PP0882] | – | – | – | – | C (A compound having a KD ratio of 0.1 or more and less than 3 is denoted as C) | B (a compound having 3 or more and less than 10 is denoted as B) |
| 110 nM | CC[C@H](C)[C@@H]1NC(=O)[C@H](CC(C)C)N(C)C(=O)C[C@@H](C(=O)N2CCOCC2)N(C)C(=O)[C@H](C2CCCC2)N(C)C(=O)C2(CCCC2)NC(=O)[C@@H]2CCCN2C(=O)[C@H](CCc2ccc(C(F)(F)F)c(Cl)c2)NC(=O)CN(C)C(=O)[C@H](Cc2ccc(OC)cc2)N2CCCCC[C@@H](C2=O)N(C)C(=O)CN(C)C1=O [PP0614] | B (a compound having 3 or more and less than 10 is denoted as B) | B (a compound having 3 or more and less than 10 is denoted as B) | – | – | – | – |
| 55.4 nM | CCCN1C(=O)CN(C)C(=O)CN(CC)C(=O)[C@H]([C@@H](C)CC)NC(=O)[C@H](CC(C)C)N(C)C(=O)C[C@@H](C(=O)N2CCOCC2)N(C)C(=O)[C@H](C2CCCC2)N(C)C(=O)C2(CCCC2)NC(=O)[C@@H]2CCN2C(=O)[C@H](CCc2ccc(C(F)(F)F)c(Cl)c2)NC(=O)CN(C)C(=O)[C@@H]1Cc1ccc(C(F)(F)F)cc1 [PP0294] ([NMeL]I[NEtG][Sar][NPrPhe(4-CF3)][Sar][hPhe(3-Cl-4-CF3)][Aze][Ac5c][NMeGly(cPent)][NMeD]-Morpholide; lactam N-11) | – | – | – | – | B (a compound having 3 or more and less than 10 is denoted as B) | C (A compound having a KD ratio of 0.1 or more and less than 3 is denoted as C) |
| 147 nM | CC[C@H](C)[C@@H]1NC(=O)[C@H](CC(C)C)N(C)C(=O)C[C@@H](C(=O)N2CCOCC2)N(C)C(=O)[C@H](C2CCCC2)N(C)C(=O)C2(CCCCC2)NC(=O)[C@@H]2CCCN2C(=O)[C@H](CCc2cc(F)c(C(F)(F)F)c(F)c2)NC(=O)CN(C)C(=O)[C@H](Cc2ccc(C(F)(F)F)cc2)N2CCCCC[C@@H](C2=O)N(C)C(=O)CN(C)C1=O [PP0498] | B (a compound having 3 or more and less than 10 is denoted as B) | B (a compound having 3 or more and less than 10 is denoted as B) | – | – | – | – |
